Results reported in patent publication US5420138A, “Bicyclic pyridines which are angiotensin II inhibitors” (Roussel-UCLAF, priority 1992, dated 1995).

Legend:
[1] = test system: angiotensin II; experiment: Test for antagonistic activity of angiotensin II in a demedullated rat (intravenous); format: in vivo, Male Sprague-Dawley rats; settings: injected via right jugular vein 5 minutes before angiotensin II (0.75 micrograms/kg), diastolic arterial pressure, read-out: ID50 (dose inhibiting the effects on pressure of angiotensin II by 50%)
Description: Male Sprague-Dawley rats (250 to 350 g) were anaesthetized by an intra-peritoneal injection of sodium pentobarbital (60 mg/kg). The diastolic arterial pressure was recorded using a heparinated catheter (PE50) introduced into the left carotid artery of the animal, and connected to a pressure processor (Gould, Pressure Processor) by means of a Gould pressure sensor.
A catheter was introduced into the right jugular vein of the animal to permit the injection of the molecules to be studied.
The animal was placed under assisted respiration. A bilateral section of the pneumogastric nerve is carried out. The rat is then demedullated.
After a sufficient period of stabilization, the study of the antagonism of the molecules vis-a-vis angiotensin II (Hypertensin, CIBA) was carried out in the following way:
1--Three consecutive injections of angiotensin II (0.75 micrograms/kg) at 15 minute intervals enabled a reproducible and stable pressure response to be obtained.
2--While keeping an administration frequency of 15 minutes of the angiotensin II, the molecules (0.01 to 10 mg/kg) were injected 5 minutes before the angiotensin II.
The effects on pressure of angiotensin II in the presence of the antagonist were expressed as a percentage of the effects on pressure of angiotensin II administered on its own. The dose inhibiting the studied effect by 50% was determined in this way (ID50). […]

[2] = target: T1, angiotensin II receptor (Rattus norvegicus, UniProt P25095); experiment: Test on the angiotensin II receptor (displacement of 125I angiotensin II, fresh rat liver membrane preparation); format: binding; settings: rat liver membranes, 25° C., 150 minutes, read-out: IC50 (50% inhibiting concentration, displacement of 125I angiotensin II)
T1 construct: A fresh membrane preparation obtained from the liver of a rat was used; from tissue; host or cells: rat liver, fresh membrane preparation
T1 sequence (P25095 1-359): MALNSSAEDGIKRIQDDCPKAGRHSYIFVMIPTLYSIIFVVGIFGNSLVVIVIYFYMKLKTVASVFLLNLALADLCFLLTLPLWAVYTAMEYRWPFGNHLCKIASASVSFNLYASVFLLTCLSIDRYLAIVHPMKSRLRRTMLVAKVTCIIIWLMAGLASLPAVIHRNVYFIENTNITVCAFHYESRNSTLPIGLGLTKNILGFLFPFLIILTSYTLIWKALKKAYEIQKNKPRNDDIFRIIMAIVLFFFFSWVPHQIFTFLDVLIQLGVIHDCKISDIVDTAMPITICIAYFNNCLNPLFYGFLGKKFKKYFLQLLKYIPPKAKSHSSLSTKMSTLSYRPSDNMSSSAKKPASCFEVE
Description: A fresh membrane preparation obtained from the liver of a rat was used. The tissue was ground in a polytron in a Tris 50 mM pH 7.4 buffer and the grinding is followed by 3 centrifugings at 30,000 g for 15 minutes with intermediate taking up of the pellets in the Tris pH 7.4 buffer.
The last pellets were suspended in an incubation buffer (Tris 20 mM, NaCl 135 mM, KCl 10 mM, glucose 5 mM, MgCl2 10 mM, PMSF 0.3 mM, bacitracin 0.1 mM, BSA 0.2%).
2 ml aliquot fractions were distributed in hemolysis tubes and ^125 I angiotensin II (25,000 DPM/tube) and the product to be studied were added. The product was first tested with 3×10^-5 M in triplicate. When the tested product displaced more than 50% of the radioactivity bound specifically to the receptor, it was tested again according to a range of 7 concentrations to determine the concentration which inhibited by 50% the radioactivity bound specifically to the receptor. In this way, the 50% inhibiting concentration was determined.
The non-specific bond was determined by the addition of the product of Example 94 of the European Patent 0253310, at 10^-5 M (in triplicate).The product was incubated at 25° C. for 150 minutes, put in a water-bath at 0° C. for 5 minutes, filtered under vacuum, rinsed with Tris pH 7.4 buffer and the radioactivity was counted in the presence of scintillating Triton. […]

[3] = test system: angiotensin II; experiment: Test of the antagonistic activity of angiotensin II by oral route in a demedullated rat; format: in vivo, Male Sprague Dawley rats; settings: oral (force-feeding), angiotensin II 0.75 ug/kg 60 and 75 minutes after force-feeding, read-out: ID50 (dose inhibiting the effects on pressure of angiotensin II by 50%), oral route
Description: Male Sprague Dawley rats of equal weight (300-330 g) were selected. The animals were divided into several groups (n ≥6 per group), receiving either the solvent (control group) or the antagonistic molecule of angiotensin II. The doses administered were determined from the ID50 IV. The solvent used. was methyl cellulose (5 ml/kg).
45 minutes after force-feeding, the animals were anaesthetized with sodium pentobarbital (60 mg/kg, IP). The diastolic arterial pressure was recorded using a heparinated catheter (PE50) introduced into the left carotid artery of the animal, and connected by means of a pressure sensor (Gould, P10 EZ) to a pressure processor (Gould, Pressure Processor). The rat was put under assisted respiration, then demedullated and bilaterally vagotomized.
Two injections of angiotensin II (0.75 ug/kg; Hypertensin, Ciba) were given via the pudendal vein, 60 and 75 minutes respectively after the force-feeding of the animals.
The effects on pressure of angiotensin II in the presence of the antagonist were expressed as a percentage of the effects on pressure of angiotensin II administered to the control group.
For each product, the dose inhibiting the studied effect by 50% (ID50) was thus determined.

Compound	ED50 [1] [mg/kg]	IC50 [2] [nM]	ED50 [3] [mg/kg]
CCCCc1nn2cccc(C(=O)O)c2c1Cc1ccc(-c2ccccc2-c2nnn[nH]2)cc1 [Example 21, 2-butyl 3-[(2'-(1H-tetrazol-5-yl) (1,1'-biphenyl) 4-yl)methyl]pyrazolo(1,5-a)pyridin 4-carboxylic acid]	0.3	0.5	2.35
CCCCc1nn2c(C)cccc2c1Cc1ccc(-c2ccccc2-c2nn[nH]n2)cc1 [Example 32, 2-butyl 7-methyl 3-[[2'-(1H-tetrazol--S--yl) (1,1'-biphenyl) 4-yl]methyl]pyrazolo (1,5-a) pyridine]	–	24	–
